The subject of one experiment is rumen microbiota. Nature of the experiment: Gas Production Test, in vitro rumen fermentation model (Example 1). The class given is cell-based. As to conditions: 15 mg N per flask, 72 hours incubation. How it is done: The in vitro model used to simulate rumen digestion and utilization of the products is the Gas Production Test protocol, adapted for protein digestibility, as described in more detail in the following paragraph.
Approximately 1 liter of rumen fluid was collected from two different rumen-fistulated animals in the morning. Rumen fluid was strained through a cheesecloth, kept at 39° C. under CO2 and then diluted 1:19 with a nitrogen-free buffer and mineral solution containing 10.03 g NaHCO3, 1.43 g Na2HPO4, 1.55 g KH2PO4, 0.15 g MgSO4·7H2O, 0.52 g Na2S, 0.017 g CaCl2·2H2O, 0.015 g MnCl2·4H2O, 0.002 g […], 0.012 g FeCl3·6H2O and 0.125 mg resazurin per liter.
To ensure the rumen fluid was depleted of free nitrogen and to ensure nitrogen would be the limiting factor for the microbial growth at the start of the experiment, the buffered rumen fluid was pre-incubated for 4 hours at 39° C. with a carbohydrate overload of glucose, xylose and soluble starch, each at 3.33 g/l. During this pre-incubation, all nitrogen available in the rumen fluid would be incorporated into bacterial protein and other bacterial nitrogen-containing components.
Each product was weighed into different glass bottles on an isonitrogenous base, providing 15 mg N per flask. Then, 60 ml of the pre-incubated buffered rumen fluid was added, under continuous flushing with CO2. Flasks were closed with rubber stoppers and placed in a shaking water bath with 50 movements per minute at 39° C. to start the incubation period. The gas production of each flask was recorded continuously for 72 hours using a fully automated system. All test products including a blank (i.e. no product added to the flask of rumen fluid) were tested in one run in triplicate.
The cumulative gas production was measured continuously for 72 hours.

The next experiment deals with ruminal fluid. Nature of the experiment: in vitro dry and organic matter digestibility, batch culture (Example 4). It is filed as cell-based, Angus crossbred steers. As to conditions: 24 hours of incubation, corn silage-based diet. How it is done: The in vitro incubations were conducted on three separate days (replicates). A representative sample of digesta was collected from different places in the rumen of ruminally cannulated steers and strained through 4 layers of cheesecloth, placed in pre-warmed thermos containers, and transported to the laboratory within 30 minutes after the collection. In the laboratory, the ruminal fluid from the two steers was maintained under constant CO2-flux and was combined in equal proportions. This combined ruminal fluid was mixed with McDougall's buffer (McDougall, 1948) with and without 0.077 g/liter of 10 wt. % ammonium sulfate enriched with ^15N in relation 1:4, and it was used as an inoculum. Two bottles of 500 ml fitted with a side arm and a rubber septum were incubated per treatment. […] At the end of the 24 hours incubation, the final pH was recorded, the bottles were placed on ice to prevent further microbial fermentation and two 10-ml samples were collected and acidified by adding 20 μl of a 20 vol/vol % of H2SO4-solution and were frozen at minus 20° C. until further analysis. […]
The concentration of ammonia-N at 12 and 24 hours in the incubation fluid was measured after centrifuging at 10,000×g for 15 minutes at 4° C. using an Avanti J-E centrifuge from Beckman Coulter® Incorporated. […]

The nature of experiment [1]: animal performance of steers with NPN supplementation (Example 3). It is filed as in vivo, crossbred yearling steers.

Each structure is given as a SMILES string.

As for `NC(N)=O` [Urea, urea], in the experiment on rumen microbiota, the “maximum gas production rate” value stood at 17 mL/h and the “time after which gas production stopped / maximum cumulative gas production (end level) was reached” value amounted to 30 h. Also, the “lag period of cumulative gas production” value in the experiment with rumen microbiota (buffered rumen fluid, 39° C.) is listed as “approximately 5 hours”. In the experiment on ruminal fluid, this compound gave an IVDMD of 45.08% and an IVOMD of 65.38%. This compound also returned an ADG in experiment [1] (days 0-14) of 0.78 kg. For the same compound, the ADG in experiment [1] (days 0-28) is on record as 0.81 kg. In addition, the ADG in experiment [1] (days 0-42) was found to be 1.02 kg.

These data come from patent US20250161245A1, “A MIXTURE OF UREA, BIURET AND N-CONTAINING BY-PRODUCTS CREATED DURING BIURET PRODUCTION AS A DIETARY NON-PROTEIN NITROGEN-SOURCE FOR RUMINANTS AND USES THEREOF” (Yara International ASA, priority 2022, published 2025).
